Measured values: patent EP1984353B1, “AURORA KINASE MODULATORS AND METHOD OF USE” (Amgen, Inc, priority 2006, dated 2007)
Like-named read-outs stand apart in the source and are kept apart here.

Legend:
AuroraA-TPX2 = target: T1, AuroraA-TPX2 (Homo sapiens, UniProt O14965); assay: AuroraA-TPX2 Homogeneous Time Resolved Fluorescent (HTRF) kinase assay; format: biochemical; conditions: average, read-out: AurA/TP X2_ IC50_IP (Avg)
T1 construct: 20 µL of AuroraA-TPX2 KD GST; GST
T1 sequence (O14965 133-383 limits assumed): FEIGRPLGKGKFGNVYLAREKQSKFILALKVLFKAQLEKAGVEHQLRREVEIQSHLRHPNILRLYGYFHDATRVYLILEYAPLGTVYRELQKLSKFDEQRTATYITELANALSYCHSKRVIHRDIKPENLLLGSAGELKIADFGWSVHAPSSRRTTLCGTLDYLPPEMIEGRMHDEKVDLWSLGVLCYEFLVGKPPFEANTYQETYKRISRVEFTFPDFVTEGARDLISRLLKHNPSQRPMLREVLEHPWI
T1 sequence (Q9ULW0 1-43 partner limits assumed): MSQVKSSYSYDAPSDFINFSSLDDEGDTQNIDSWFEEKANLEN
Method: AuroraA-TPX2-Homogeneous Time Resolved Fluorescent (HTRF) Kinase Assay:
The Aurora-A HTRF assay begins with Aurora-A in the presence of ATP phosphorylating the biotinylated peptide PLK. The reaction incubates for about 120 min. Detection reagents are added to quench the reaction. These agents stop the reaction by diluting out the enzyme and chelating the metals due to the presence of EDTA. After addition, the assay is incubated overnight to allow the detection reagents to equilibrate.
The final concentration of PLK is about 1 µM. […] Buffer conditions are as follows: 60mM HEPES pH 7.5, 25mM NaCl, 10mM MgCl, 2mM DTT, 0.05% BSA.
(§1) The assay is quenched and stopped with 160 µL, of detection reagent. Detection reagents are as follows: Buffer made of 50mM Tris, pH 7.5, 100mM NaCl, 3mM EDTA, 0.05% BSA, 0.1% Tween20. Added to this buffer prior to reading is Steptavidin allophycocyanin (SA-APC) at a final conc in the assay of 0.0005 mg/mL, and europilated anti-phosphoPLK Ab (Eu-anti-PLK) at a final conc of 0.02 nM.
The assay plate is read in either a Discovery or a RubyStar. The eu-anti-PLK is excited at 320 nm and emits at 615 nm to excite the SA-APC which in turn emits at 655 nm.

AuroraB = target: T2, AuroraB (Homo sapiens, UniProt Q96GD4); assay: AuroraB Homogeneous Time Resolved Fluorescent (HTRF) kinase assay; format: biochemical; conditions: average, read-out: AurB_ _IC50_IP (Avg)
T2 construct: 20 µL of AuroraB FL His; His
Method: AuroraB-Homogeneous Time Resolved Fluorescent (HTRF) Kinase Assay:
The AuroraB HTRF assay begins with AuroraB in the presence of ATP phosphorylating the biotinylated peptide Histone H3. The reaction incubates for about 90 min. the reaction is quentched by addition of detection reagents, which stop the reaction by diluting out the enzyme and chelating the metals due to the presence of EDTA. After addition, the assay is incubated for about 60 min to allow detection reagents to equilibrate.
The AuroraB HTRF assay comprises 1 µL of compound in 100% DMSO, 20 µL of ATP and biotinylated Histone H3, and 20 µL of AuroraB FL His for a final volume of 41 µL. The final concentration of Histone H3 is 0.1 µM. The final concentration of ATP is 23 µM (Km(app) = 23 µM+/-2.6) and the final concentration of AuroraB is 400 pM. Buffer conditions are as follows: 50mM HEPES pH 7.5, 5mM NaCl, 0.5mM MgCl, 0.5mM MnCl, 2mM DTT, 0.05% BSA.
as §1, with “µL” for “µL,”, “0.001” for “0.0005”, “anti-phosphoHistoneH3” for “anti-phosphoPLK”, “(Eu-anti-HisH3)” for “(Eu-anti-PLK)”, “0.064” for “0.02”
The assay plate is read in either a Discovery or a RubyStar. The eu-anti-HisH3 is excited at 320 nm and emits at 615 nm to excite the SA-APC which in turn emits at 655 nm. The ratio of SA-APC at 655 nm (excited due to close proximity to the Eu-anti-HisH3 because of phosphorylation of the peptide) to free Eu-anti-HisH3 at 615 nm will give substrate phosphorylation.

[1] = given as numbers, unit inferred

T2 sequence (Q96GD4 whole entry): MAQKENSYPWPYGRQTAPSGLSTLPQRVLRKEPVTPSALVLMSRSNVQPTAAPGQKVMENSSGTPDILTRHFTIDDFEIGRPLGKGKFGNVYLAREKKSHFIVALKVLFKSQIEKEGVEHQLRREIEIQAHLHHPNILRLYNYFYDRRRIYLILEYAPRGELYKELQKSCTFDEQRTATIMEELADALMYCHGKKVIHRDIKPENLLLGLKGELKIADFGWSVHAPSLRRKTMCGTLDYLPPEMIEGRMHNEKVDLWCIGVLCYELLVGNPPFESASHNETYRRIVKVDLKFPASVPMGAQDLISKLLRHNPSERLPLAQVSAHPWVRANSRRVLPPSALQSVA

SMILES | IC50 (AuroraA-TPX2; [1]) [nM] | IC50 (AuroraB; [1]) [nM] | IC50 (AuroraA-TPX2; given as class symbols) [nM] | IC50 (AuroraB; given as class symbols) [nM]
C[C@@H](O)c1ccc(-c2nnc(Nc3ccc(Oc4ncccc4-c4ccnc(N)n4)cc3)c3ccccc23)cc1 [compound 256, (1R)-1-(4-(4-((4-((3-(2-amino-4-pyrimidinyl)-2-pyridinyl)oxy)phenyl)amino)-1-phthalazinyl)phenyl)ethanol] | 149 | 1.8 | – | –
C[C@H](O)c1ccc(-c2nnc(Nc3ccc(Oc4ncccc4-c4ccnc(N)n4)cc3)c3ccccc23)cc1 [compound 257, (1S)-1-(4-(4-((4-((3-(2-amino-4-pyrimidinyl)-2-pyridinyl)oxy)phenyl)amino)-1-phthalazinyl)phenyl)ethanol] | – | – | ≤ 100 | ≤ 100
CN1C[C@@H]2C[C@H]1CN2c1nnc(Nc2ccc(Oc3ncccc3-c3ccnc(N)n3)cc2)c2ccccc12 [compound 258, N-(4-((3-(2-amino-4-pyrimidinyl)-2-pyridinyl)oxy)phenyl)-4-((1S,4S)-5-methyl-2,5-diazabicyclo[2.2.1]hept-2-yl)-1-phthalazinamine] | – | – | 500 to 2500 | 100 to 500
Nc1nccc(-c2cccnc2Oc2ccc(Nc3ncc(-c4ccc(Cl)cc4)c4ccccc34)cc2)n1 [compound 265, N-(4-((3-(2-amino-4-pyrimidinyl)-2-pyridinyl)oxy)phenyl)-4-(4-chlorophenyl)-1-isoquinolinamine] | – | – | ≤ 100 | ≤ 100
Nc1nccc(-c2cccnc2Oc2ccc(Nc3ncc(-c4ccccc4)c4ccccc34)cn2)n1 [compound 266, N-(6-((3-(2-amino-4-pyrimidinyl)-2-pyridinyl)oxy)-3-pyridinyl)-4-phenyl-1-isoquinolinamine] | – | – | ≤ 100 | ≤ 100
c1ccc(-c2nnc(Nc3ccc(Oc4ncccc4-c4ccnc(NCCCN5CCCCC5)n4)nc3)c3ccccc23)cc1 [compound 267, 4-phenyl-N-(6-((3-(2-((3-(1-piperidinyl)propyl)amino)-4-pyrimidinyl)-2-pyridinyl)oxy)-3-pyridinyl)-1-phthalazinamine] | 96.4 | 10.4 | – | –
c1ccc(-c2nnc(Nc3ccc(Oc4ncccc4-n4ccnc4)cc3)c3ccccc23)cc1 [compound 268, N-(4-((3-(1H-imidazol-1-yl)-2-pyridinyl)oxy)phenyl)-4-phenyl-1-phthalazinamine] | – | – | 500 to 2500 | 500 to 2500
CC(C)c1nnc(Nc2ccc(Oc3ncccc3-c3ccnc(N)n3)nc2)c2ccccc12 [compound 269, N-(6-((3-(2-amino-4-pyrimidinyl)-2-pyridinyl)oxy)-3-pyridinyl)-4-(1-methylethyl)-1-phthalazinamine] | – | – | ≤ 100 | ≤ 100
Cc1cccc(-c2nnc(Nc3ccc(Oc4ncccc4-c4ccnc(N)n4)nc3)c3ccccc23)n1 [compound 270, N-(6-((3-(2-amino-4-pyrimidinyl)-2-pyridinyl)oxy)-3-pyridinyl)-4-(6-methyl-2-pyridinyl)-1-phthalazinamine] | – | – | ≤ 100 | ≤ 100
Nc1nccc(-c2cccnc2Oc2ccc(Nc3nnc(C4CCCCC4)c4ccccc34)cc2)n1 [compound 272, N-(4-((3-(2-amino-4-pyrimidinyl)-2-pyridinyl)oxy)phenyl)-4-cyclohexyl-1-phthalazinamine] | 19.7 | 5.5 | – | –
CC(C)c1nnc(Nc2ccc(Oc3ncccc3-c3ccnc(N)n3)cc2)c2ccccc12 [compound 273, N-(4-((3-(2-amino-4-pyrimidinyl)-2-pyridinyl)oxy)phenyl)-4-(1-methylethyl)-1-phthalazinamine] | – | – | 100 to 500 | ≤ 100
Cc1cccc(-c2nnc(Nc3ccc(Oc4ncccc4-c4ccnc(NCCCN5CCN(C)CC5)n4)cc3)c3ccccc23)n1 [compound 275, N-(4-((3-(2-((3-(4-methyl-1-piperazinyl)propyl)amino)-4-pyrimidinyl)-2-pyridinyl)oxy)phenyl)-4-(6-methyl-2-pyridinyl)-1-phthalazinamine] | 94.9 | 13.4 | – | –
